According to patent publication US20240158446A1, “CYCLIC COMPOUND HAVING SELECTIVE INHIBITORY ACTION ON KRAS OVER HRAS AND NRAS” (CHUGAI SEIYAKU KABUSHIKI KAISHA, priority 2021, published 2024):
Read-outs that look alike come from different tables or passages of the source. *1 amine or outer side, *2 acyl side, *3 side chain or, on linkers, in order; H or OH if unused. Where a SMILES comes first, the peptide text is derived from it. Bridges are numbered along the chain shown (N, C = ends). [ ]: non-standard residue; d: D form. The star is where a group is joined. hPhe(3-Cl-4-CF3) = N[C@@H](CCc1ccc(C(F)(F)F)c(Cl)c1)C(=O)O; NPrPhe(4-CF3) = CCCN[C@@H](Cc1ccc(C(F)(F)F)cc1)C(=O)O; X9 = CCCN([C@@H](Cc1ccc(F)cc1)C(=O)[*:2])[*:1]; NEtPhe(4-Me) = CCN[C@@H](Cc1ccc(C)cc1)C(=O)O; NMeGly(cPent) = CN[C@H](C(=O)O)C1CCCC1; Pro(4,4-F2) = O=C(O)[C@@H]1CC(F)(F)CN1; NMeGly(cBu) = CN[C@H](C(=O)O)C1CCC1; NMeD = CN[C@@H](CC(=O)O)C(=O)O; NMeL = CN[C@@H](CC(C)C)C(=O)O; X12 = N#CCN(CC(=O)[*:2])[*:1]; Morpholide = C1CN(*)CCO1; NMeA = CN[C@@H](C)C(=O)O; Ac5c = NC1(C(=O)O)CCCC1; Aze = O=C(O)[C@@H]1CCN1; NEtG = CCNCC(=O)O; Sar = CNCC(=O)O

Key:
[1] = target: GDP-bound HRAS wild-type protein (Homo sapiens, UniProt P01112); assay: Binding to HRAS by surface plasmon resonance (SPR), Single Cycle Kinetics
Chain of GDP-bound HRAS wild-type protein (P01112 whole entry): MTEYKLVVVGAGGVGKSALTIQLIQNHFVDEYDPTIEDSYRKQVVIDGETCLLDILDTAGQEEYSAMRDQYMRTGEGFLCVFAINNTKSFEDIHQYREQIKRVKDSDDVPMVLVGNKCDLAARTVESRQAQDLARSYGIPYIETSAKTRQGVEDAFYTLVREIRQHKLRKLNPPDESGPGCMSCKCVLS

[2] = target: GDP-bound NRAS wild-type protein (Homo sapiens, UniProt P01111); assay: Binding to NRAS by surface plasmon resonance (SPR), Single Cycle Kinetics
Chain of GDP-bound NRAS wild-type protein (P01111 whole entry): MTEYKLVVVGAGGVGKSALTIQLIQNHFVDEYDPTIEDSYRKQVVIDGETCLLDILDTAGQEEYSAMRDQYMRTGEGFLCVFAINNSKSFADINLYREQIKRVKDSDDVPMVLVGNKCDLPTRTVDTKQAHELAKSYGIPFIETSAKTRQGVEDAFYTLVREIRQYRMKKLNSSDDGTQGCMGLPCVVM

[3] = target: GDP-bound KRAS wild-type protein (Homo sapiens, UniProt P01116); assay: Binding to KRAS by surface plasmon resonance (SPR), Single Cycle Kinetics; details: GDP-bound KRAS wild-type protein, read-out: KRAS KD
Chain of GDP-bound KRAS wild-type protein (P01116 whole entry): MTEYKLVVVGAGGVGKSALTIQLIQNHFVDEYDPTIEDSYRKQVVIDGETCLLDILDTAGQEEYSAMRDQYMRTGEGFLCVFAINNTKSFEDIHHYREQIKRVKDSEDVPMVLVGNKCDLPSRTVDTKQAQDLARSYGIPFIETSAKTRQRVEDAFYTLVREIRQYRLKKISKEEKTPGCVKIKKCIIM

[4] = SPR, GDP-bound HRAS wild-type protein vs GDP-bound KRAS wild-type protein, KD ratio class
[5] = SPR, GDP-bound NRAS wild-type protein vs GDP-bound KRAS wild-type protein, KD ratio class
[6] = SPR, Single Cycle Kinetics, 1:1 binding model
[7] = SPR, GDP-bound HRAS wild-type protein vs GDP-bound KRAS wild-type protein
[8] = SPR, GDP-bound NRAS wild-type protein vs GDP-bound KRAS wild-type protein
[9] = SPR Single Cycle Kinetics, 1:1 binding model

| Structure (SMILES) | Kd [3, 9] [pM] | HRAS/KRAS (ratio of KD value for HRAS to KD value for KRAS) [1, 7] | NRAS/KRAS (ratio of KD value for NRAS to KD value for KRAS) [2, 8] | further results |
| --- | --- | --- | --- | --- |
| CCO[C@@H]1C[C@H]2C(=O)NC3(CCC3)C(=O)N(C)[C@@H](C3CCCC3)C(=O)N(C)[C@H](C3CCCCC3)CC(=O)N(C)[C@@H](COC)C(=O)N[C@@H]([C@@H](C)CC)C(=O)N(C)CC(=O)N(C)[C@H]3C/C=C\CCN(C3=O)[C@@H](Cc3ccc(C(F)(F)F)cc3)C(=O)N(C)CC(=O)N[C@@H](CCc3cc(F)c(C(F)(F)F)c(F)c3)C(=O)N2C1 [PP1584] | – | – | – | HRAS/KRAS (ratio of KD value for HRAS to KD value for KRAS) [1, 4]: B (a compound having 3 or more and less than 10 is denoted as B); NRAS/KRAS (ratio of KD value for NRAS to KD value for KRAS) [2, 5]: B (a compound having 3 or more and less than 10 is denoted as B); Kd [3, 6]: 560 pM |
| CCO[C@@H]1C[C@H]2C(=O)NC3(CCC3)C(=O)N(C)[C@@H](C3CCCC3)C(=O)N(C)[C@H](C(=O)N(C)CCOC)CC(=O)N(C)[C@@H](CC)C(=O)N[C@@H]([C@@H](C)CC)C(=O)N(C)CC(=O)N(C)[C@H]3C/C=C\CCN(C3=O)[C@@H](Cc3ccc(C(F)(F)F)cc3)C(=O)N(C)CC(=O)N[C@@H](CCc3cc(F)c(C(F)(F)F)c(F)c3)C(=O)N2C1 [PP1316, (2S,8S,12R,14S,20S,23S,27S,30S,36S,38Z)-20-cyclopentyl-8-[2-[3,5-difluoro-4-(trifluoromethyl)phenyl]ethyl]-12-ethoxy-27-ethyl-N-(2-methoxyethyl)-N,4,19,22,26,32,35-heptamethyl-30-[(1S)-1-methylpropyl]-3,6,9,15,18,21,25,28,31,34,42-undecaoxo-2-[[4-(trifluoromethyl)phenyl]methyl]spiro[1,4,7,10,16,19,22,26,29,32,35-undecazatricyclo[34.5.1.0^10,14]dotetracont-38-ene-17,1′-cyclobutane]-23-carboxamide] | – | – | – | HRAS/KRAS (ratio of KD value for HRAS to KD value for KRAS) [1, 4]: A (a compound having 10 or more and less than 20 is denoted as A); NRAS/KRAS (ratio of KD value for NRAS to KD value for KRAS) [2, 5]: A (a compound having 10 or more and less than 20 is denoted as A); Kd [3, 6]: 72 pM |
| CCO[C@@H]1C[C@H]2C(=O)NC3(CCC3)C(=O)N(C)[C@@H](C3CCCC3)C(=O)N(C)[C@H](C(=O)N3CCOCC3)CC(=O)N(C)[C@@H](COC)C(=O)N[C@@H]([C@@H](C)CC)C(=O)N3CC[C@H]3C(=O)N(C)[C@H]3CCCCCN(C3=O)[C@@H](Cc3ccc(C(F)(F)F)cc3)C(=O)N(C)CC(=O)N[C@@H](CCc3cc(F)c(C(F)(F)F)c(F)c3)C(=O)N2C1 [PP0863] | – | B (a compound having 3 or more and less than 10 is denoted as B) | B (a compound having 3 or more and less than 10 is denoted as B) | Kd ([3]; SPR, Single Cycle Kinetics): 600 pM |
| CCO[C@@H]1C[C@H]2C(=O)N(C)C3(CCC3)C(=O)N(C)[C@@H](C(CC)CC)C(=O)N(C)[C@H](C(=O)N(C)C)CC(=O)N(C)[C@@H](COC)C(=O)N[C@@H]([C@@H](C)CC)C(=O)N(C3CC3)CC(=O)N(C)[C@H]3C/C=C\CCN(C3=O)[C@@H](CC3CCCCC3)C(=O)N(C)CC(=O)N[C@@H](CCc3ccc(C(F)(F)F)c(OC)c3)C(=O)N2C1 [PP2339] | – | A (a compound having 10 or more and less than 20 is denoted as A) | A (a compound having 10 or more and less than 20 is denoted as A) | Kd ([3]; SPR, Single Cycle Kinetics): 2600 pM |
| CCCN1C(=O)CN(C)C(=O)CN(CC)C(=O)[C@H]([C@@H](C)CC)NC(=O)[C@H](CC(C)C)N(C)C(=O)C[C@@H](C(=O)N(C)C)NC(=O)[C@H](C2CCCC2)N(C)C(=O)C2(CCCC2)NC(=O)[C@@H]2CC(F)(F)CN2C(=O)[C@H](CCc2ccc(C(F)(F)F)c(Cl)c2)NC(=O)CN(C)C(=O)[C@@H]1Cc1ccc(C(F)(F)F)cc1 [PP0369] ([NMeL]I[NEtG][Sar][NPrPhe(4-CF3)][Sar][hPhe(3-Cl-4-CF3)][Pro(4,4-F2)][Ac5c][NMeGly(cPent)]D-NMe2; lactam N-11) | 1900 | C (A compound having a KD ratio of 0.1 or more and less than 3 is denoted as C) | B (a compound having 3 or more and less than 10 is denoted as B) | – |
| CCC[C@H]1C(=O)N[C@@H]([C@@H](C)CC)C(=O)N(C2CC2)CC(=O)N(C)[C@H]2C/C=C\CCN(C2=O)[C@@H](Cc2ccc(C)cc2)C(=O)N(C)CC(=O)N[C@@H](CCc2ccc(C(F)(F)F)c(OC)c2)C(=O)N2C[C@H](OCC)C[C@H]2C(=O)NC2(CC(C)(C)C2)C(=O)N(C)[C@@H](CC2CC2)C(=O)N(C)[C@H](C(=O)N(C)C)CC(=O)N1C [PP2803] | 5900 | – | – | HRAS/KRAS (ratio of KD value with respect to GDP-bound HRAS wild-type protein to KD value with respect to KRAS) ([1]; SPR KD ratio HRAS/KRAS, class symbols): A (a compound having 10 or more and less than 20 is denoted as A); NRAS/KRAS (ratio of KD value with respect to GDP-bound NRAS wild-type protein to KD value with respect to KRAS) ([2]; SPR KD ratio NRAS/KRAS, class symbols): A (a compound having 10 or more and less than 20 is denoted as A) |

The next lines start with results.

| Kd [3, 9] [pM] | Structure (SMILES) | HRAS/KRAS (ratio of KD value for HRAS to KD value for KRAS) [1, 7] | NRAS/KRAS (ratio of KD value for NRAS to KD value for KRAS) [2, 8] | further results |
| --- | --- | --- | --- | --- |
| 1100 | CC[C@H](C)[C@@H]1NC(=O)[C@H](CC(C)C)N(C)C(=O)C[C@@H](C(=O)N2CCOCC2)N(C)C(=O)[C@H](C2CCCC2)N(C)C(=O)C2(CCCC2)NC(=O)[C@@H]2CCCN2C(=O)[C@H](CCc2ccc(C(F)(F)F)c(Cl)c2)NC(=O)CN(C)C(=O)[C@H](Cc2ccc(OC)cc2)N2CCCCC[C@@H](C2=O)N(C)C(=O)CN(C)C1=O [PP0614] | – | – | HRAS/KRAS (ratio of KD value with respect to HRAS to KD value with respect to KRAS) [1, 7]: B (a compound having 3 or more and less than 10 is denoted as B); NRAS/KRAS (ratio of KD value with respect to NRAS to KD value with respect to KRAS) [2, 8]: B (a compound having 3 or more and less than 10 is denoted as B) |
| 160 | CCCN1C(=O)CN(C)C(=O)CN(CC#N)C(=O)[C@H]([C@@H](C)CC)NC(=O)[C@H](CC(C)C)N(C)C(=O)C[C@@H](C(=O)N2CCOCC2)N(C)C(=O)[C@H](C2CCCC2)N(C)C(=O)C2(CCCC2)NC(=O)[C@@H]2CCCN2C(=O)[C@H](CCc2ccc(C(F)(F)F)c(Cl)c2)NC(=O)CN(C)C(=O)[C@@H]1Cc1ccc(C(F)(F)F)cc1 [PP0254] ([NMeL]I[X12][Sar][NPrPhe(4-CF3)][Sar][hPhe(3-Cl-4-CF3)]P[Ac5c][NMeGly(cPent)][NMeD]-Morpholide; lactam N-11) | C (A compound having a KD ratio of 0.1 or more and less than 3 is denoted as C) | B (a compound having 3 or more and less than 10 is denoted as B) | – |
| 1400 | CCCN1C(=O)CN(C)C(=O)CN(CC)C(=O)[C@H]([C@@H](C)CC)NC(=O)[C@H](CC(C)C)N(C)C(=O)C[C@@H](C(=O)N2CCOCC2)N(C)C(=O)[C@H](C2CCCC2)N(C)C(=O)C2(CCCC2)NC(=O)CN(C)C(=O)[C@H](CCc2ccc(C(F)(F)F)c(Cl)c2)NC(=O)CN(C)C(=O)[C@@H]1Cc1ccc(C(F)(F)F)cc1 [PP0300] ([NMeL]I[NEtG][Sar][NPrPhe(4-CF3)][Sar][hPhe(3-Cl-4-CF3)][Sar][Ac5c][NMeGly(cPent)][NMeD]-Morpholide; lactam N-11) | C (A compound having a KD ratio of 0.1 or more and less than 3 is denoted as C) | B (a compound having 3 or more and less than 10 is denoted as B) | – |
| 250 | CCCN1C(=O)CN(C)C(=O)CN(C)C(=O)[C@H]([C@@H](C)CC)NC(=O)[C@H](C2CCC2)N(C)C(=O)C[C@@H](C(=O)N2CCOCC2)N(C)C(=O)[C@H](C2CCCC2)N(C)C(=O)C2(CCCC2)NC(=O)[C@@H]2CCCN2C(=O)[C@H](CCc2ccc(C(F)(F)F)c(Cl)c2)NC(=O)CN(C)C(=O)[C@@H]1Cc1ccc(C(F)(F)F)cc1 [PP0188] ([NMeGly(cBu)]I[Sar][Sar][NPrPhe(4-CF3)][Sar][hPhe(3-Cl-4-CF3)]P[Ac5c][NMeGly(cPent)][NMeD]-Morpholide; lactam N-11) | C (A compound having a KD ratio of 0.1 or more and less than 3 is denoted as C) | B (a compound having 3 or more and less than 10 is denoted as B) | – |
| 130 | CCCN1C(=O)[C@@H]2CCN2C(=O)[C@H](C)N(C)C(=O)[C@H]([C@@H](C)CC)NC(=O)[C@H](CC(C)C)N(C)C(=O)C[C@@H](C(=O)N2CCOCC2)N(C)C(=O)[C@H](C2CCCC2)N(C)C(=O)C2(CCCC2)NC(=O)[C@@H]2CCCN2C(=O)[C@H](CCc2ccc(C(F)(F)F)c(Cl)c2)NC(=O)CN(C)C(=O)[C@@H]1Cc1ccc(F)cc1 [PP0219] ([NMeL]I[NMeA][Aze][X9][Sar][hPhe(3-Cl-4-CF3)]P[Ac5c][NMeGly(cPent)][NMeD]-Morpholide; lactam N-11) | B (a compound having 3 or more and less than 10 is denoted as B) | C (A compound having a KD ratio of 0.1 or more and less than 3 is denoted as C) | – |
| 180 | CC[C@H](C)[C@@H]1NC(=O)[C@H](C)N(C)C(=O)C[C@@H](C(=O)N2CCOCC2)N(C)C(=O)[C@H](C2CCCC2)N(C)C(=O)C2(CCCC2)NC(=O)[C@@H]2CCCN2C(=O)[C@H](CCc2ccc(C(F)(F)F)c(Cl)c2)NC(=O)CN(C)C(=O)[C@H](Cc2ccc(C)cc2)N(CC)C(=O)CN(C)C(=O)CN(C)C1=O [PP0031] ([NMeA]I[Sar][Sar][NEtPhe(4-Me)][Sar][hPhe(3-Cl-4-CF3)]P[Ac5c][NMeGly(cPent)][NMeD]-Morpholide; lactam N-11) | C (A compound having a KD ratio of 0.1 or more and less than 3 is denoted as C) | B (a compound having 3 or more and less than 10 is denoted as B) | – |
